Results on two compounds are retold here after patent US9840464B2, “IAP binding compounds” (TetraLogic Birinapant UK Ltd., priority 2004, dated 2017).

Test [1] concerns SK-OV-3 cells. The test can be described thus: MTT cell growth/survival assay. It counts as cell-based. The conditions noted are these: Homo sapiens, 72 hrs incubation, drug concentration that results in 50% cell survival. The procedure:
The MTT assay is an example of an assay that has been used for measuring cell growth as previously described (Hansen, M. B., Nielsen, S. E., and Berg, K. J. Immunol. Methods 1989, 119, 203-210) and incorporated herein by reference in its entirety. Briefly, SK-OV-3 cells were seeded in 96-well plates in McCoy's medium containing 10% fetal bovine serum […] (20,000 per well) and incubated overnight at 37° C. Next day, test compounds were added at various concentrations typically from about 10 to about 0.0001 μM and the plates were incubated at 37° C. for an additional 72 hrs. This incubation time was optimal for measuring inhibitory effects of different analogs. 50 microliters of 5 mg/mL MTT reagent to each well was added and the plates were incubated at 37° C. for 3 hours. At the end of incubation period, 50 microliters of DMSO was added to each well to dissolve cells and the optical density (OD) of the wells was measured with a microplate reader (Victor^2 1420, Wallac, Finland) at 535 nm. Cell survival (CS) was calculated by the following equation: CS=(OD treated well/mean OD control wells)×100%
The EC50, defined as the drug concentration that results in 50% CS, was derived by calculating the point where the dose-response curve crosses the 50% CS point using GraphPad Prism.

Test [2] addresses XIAP-BIR3 (Homo sapiens, UniProt P98170). The test can be described thus: XIAP BIR3 fluorescence polarization binding assay (competition with AbuRPF-K(5-Fam)-NH2). The conditions noted are these: 5 nM AbuRPF-K(5-Fam)-NH2, 40 nM XIAP-BIR3, pH 7.5; Kd calculated from measured IC50; read-out: KD Range. The procedure: Binding constants (Kd) were measured using fluorescence polarization as described by Zaneta Nikolovska-Coleska, Renxiao Wang, Xueliang Fang, Hongguang Pan, York Tomita, Peng Li, Peter P. Roller, Krzysztof Krajewski, Naoyuki Saito, Jeanne Stuckey and Shaomeng Wang, in “Development and Optimization of a Binding Assay for the XIAP BIR3 Domain Using Fluorescence Polarization”, Analytical Biochemistry 2004, 332, 261-273). Briefly, test IAP binding compounds at various concentrations for binding measurements were mixed with 5 nM fluorescently labeled peptide (AbuRPF-K(5-Fam)-NH2) and 40 nM of XIAP-BIR3 for 15 minutes at room temperature in 100 μL of 0.1M Potassium Phosphate buffer, pH 7.5 containing 100 μg/ml bovine γ-globulin. Following incubation, the polarization values (mP) were measured on a Victor^2V using a 485 nm excitation filter and a 520 nm emission filter. IC50 values were determined from the plot using nonlinear least-squares analysis using GraphPad Prism. The Kd values of competitive inhibitors were calculated using the equation described by Zaneta Nikolovska-Coleska et al. based upon the measured IC50 values, the Kd value of the probe and XIAP BIR3 complex, and the concentrations of the protein and probe in the competition assay. In various examples of IAP binding or IAP binding cargo molecules ranges for Kd values: Group A: Kd<0.1 μM; Group B: Kd=0.1-1 μM; Group C: Kd=1-10 μM; Group D: Kd>10 μM.

Sequence of XIAP-BIR3 (P98170 241-356 limits assumed): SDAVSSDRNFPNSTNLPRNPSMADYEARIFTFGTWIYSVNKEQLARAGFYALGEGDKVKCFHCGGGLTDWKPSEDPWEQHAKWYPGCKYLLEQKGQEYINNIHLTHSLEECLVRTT

One may read the EC50 as the concentration that produces a half-maximal response. For orientation: Kd means a measure of binding affinity in units of concentration. In the case of `CNC(C)C(=O)NC(C(=O)N1CCCC1Cc1cn(CCOCCOCCOC)c2cc(F)ccc12)C1CCCCC1` (stereo not shown) [Entry 16-109, N-{1-Cyclohexyl-2-[2-(6-fluoro-1-{2-[2-(2-methoxy-ethoxy)-ethoxy]-ethyl}-1H-indol-3-ylmethyl)-pyrrolidin-1-yl]-2-oxo-ethyl}-2-methylamino-propionamide], the EC50 in test [1] turned out to be 0.06 ± 0.026 µM. Further, the Kd in test [2] is 100 to 1000 nM.
The corresponding values for `CNC(C)C(=O)NC(C(=O)N1CCCC1Cc1c[nH]c2cc(F)ccc12)C1CCCCC1` (stereo not shown) [Entry 14-104] are 0.515 ± 0.093 µM and 100 to 1000 nM.
